Measured values from patent US20260108588A1, “A COMPLEX COMPRISING A ALPHA-LACTALBUMIN AND A FATTY ACID OR LIPID FOR USE IN THE TREATMENT OR PREVENTION OF CANCER” (LINNANE PHARMA AB, priority 2022, published 2026).

Legend:
[1] = system: intestinal tumors of Apc^Min/+ mice; assay: Intestinal cancer model in Apc^Min/+ mice, BAMLET oral gavage, tumor enumeration and histology; type: in vivo
Protocol: Apc^Min/+ mice were obtained from Jackson Laboratories at about eight weeks of age. Genotyping was performed by PCR analysis of genomic DNA obtained from blood collected from the retro-orbital sinus. Multiple tumors were developed in the small intestine at eight to ten weeks. Mice were acclimated for about two weeks at the local animal facility at BMC, Lund University in order to reduce stress from transportation.
For BAMLET therapeutic protocol, ten-week-old female mice (n=10 per group) were orally gavaged with 20 mg of BAMLET in 400 μl PBS, twice daily for ten days. Mice were not given water or food five hours prior to BAMLET administration. Food and water were provided 30 minutes after BAMLET oral administration. Sham treated mice were gavaged with 400 μl PBS. Mice were sacrificed two weeks and five weeks after the end of the treatment and intestinal tissue samples were collected for further analysis.
Mice were sacrificed by isoflurane inhalation. Tumor enumeration and sample collection was presented as previously described^28. Tumor numbers and size were determined using a dissecting microscope (Olympus) and evaluated by three blinded investigators.
The opened intestinal segments were spread flat between sheets of filter paper and fixed overnight in 10% neutral buffered formalin. Formalin-fixed sections were transferred to 70% ethanol and stained with 0.2% methylene blue (Sigma, #M9140). Stained sections were rinsed in deionized water and imaged by a dissecting microscope.
(§1) Swiss rolls of longitudinally opened intestinal segments were fixed overnight in 10% neutral buffered formalin. Samples were embedded in paraffin and 5 μm thick sections were further processed for histology and immunohistochemistry using antibodies for bovine alpha-Lactalbumin (ThermoFisher Scientific, Cat #A10-128A), β-catenin (CellSignaling, Cat #9562), Cyclin D1 (ThermoFisher Scientific, Cat #SC8396), Ki-67 (BD Biosciences, Cat #556003), VEGF (Abcam, Cat #ab46154), PD-1 (Abcam, Cat #ab214421) and TTF-1 (Abcam, Cat #ab227652) as previously described^28 with slight modifications. Citrate buffer (Dako Target Retrieval Solution, Agilent, Cat #S1699) was used for antigen retrieval for Cyclin D1, Ki-67, VEGF, bovine alpha-Lactalbumin and β-catenin staining. EDTA buffer (Abcam, Cat #ab64216) was used for antigen retrieval for TTF-1 staining. Immunohistochemistry was quantified by ImageJ. For Hematoxylin-Eosin (H&E) staining, Hematoxylin (ThermoFisher Scientific, Cat #7211) was used followed by Eosin-Y (ThermoFisher Scientific, Cat #7111) for counterstaining. Images were captured using the AX10 microscope or the Hamamatzu Nanozoomer scanner (Carl Zeiss) and the DAB-positive beta-catenin antibody fields (4-10) for each organ cross-sections were quantified by ImageJ.

HT29 cells = assay: Colony assay; type: cell-based, human; conditions: HT29, 7, 21 and 35 μM
Protocol: (§2) Cells were seeded on 12-well plates (1×10^3 cells/well) and incubated overnight. Cells were treated with different complexes: BAMLET (7, 21, and 35 μM) or alpha1-oleate (7, 21, and 35 μM) in serum-free media and incubated for one hour at 37° C., 5% CO2. The incubation was continued after the addition of FCS to the media. On day ten post-treatment, the cells were washed once and fixed with cold methanol (300 μl) for 15 minutes on ice. Finally, colonies of cells were stained with hematoxylin (ThermoFisher Scientific, Cat #7211) for five minutes and images were captured under a dissecting microscope (Carl Zeiss). The experiment was repeated twice for each cell line.

DLD1 cells = assay: Colony assay; type: cell-based, human; conditions: DLD1, 7, 21 and 35 μM
Protocol: as §2

PD-1 = PD-1 staining of intestinal sections; type: in vivo, mice; conditions: tumor and healthy tissue areas, long-term drinking water, vs sham
Protocol: For PD-1 immunofluorescence staining, paraffin sections were deparaffinized in xylene, rehydrated with reduced ethanol concentrations and then washed with deionized water. The slides were then immerged in target retrieval solution (Dako, S1699) and boiled for 20 minutes, followed by 30 minutes permeabilization with 0.25% Triton in PBS at room temperature. A blocking solution consisting in 5% goat serum in PBS was added on the sections for 1 h at room temperature, before adding the rabbit monoclonal anti-mouse PD-1 antibody (Abcam-ab214421, 1:150) in 1% goat serum and incubated overnight at 4° C. The slides were then washed with 0.025% PBS-T and stained with goat anti-rabbit […] secondary antibody (1:200 for 1 h at room temperature, Invitrogen cat. n. A11034). The nuclei were counterstained with DAPI for 15 minutes, washed in PBS, and then mounted with Fluoromount aqueous mounting media (Sigma, F4680). Images were captured with the Hamamatzu Nanozoomer scanner and the fluorescence intensity was quantified by ImageJ.

[2] = system: intestinal gene expression; assay: Transcriptomic analysis of intestinal tissue of Apc^Min/+ mice; type: in vivo
Protocol: Approximately 5 mg of tissue was homogenized using a Tissuelyser (Qiagen) and total RNA was extracted using the RNeasy kit (Qiagen), amplified using a GeneChip 3'IVT Express Kit, hybridized onto Mouse Genome 430 PM array strips, and scanned using the GeneAtlas system (Affymetrix). Data was normalized using Robust Multi Average implemented in the Transcriptome Analysis Console software (v.4.0.1.36, Applied Biosystems, ThermoFisher Scientific). Relative expression was analyzed by ANOVA using the empirical Bayes method, and genes with an absolute fold change >1.5 or 2.0 were considered differentially expressed. Heat maps were constructed using Graphpad Prism 9 and differentially expressed genes were analyzed using Ingenuity Pathway Analysis software (IPA, Qiagen).

[3] = system: lungs, livers, kidneys and spleens of Apc^Min/+ mice; assay: Macroscopy, histology and immunohistochemistry of organs outside the intestine of Apc^Min/+ mice, long-term drinking water; type: in vivo
Protocol: For BAMLET prophylaxis protocol, ten-week-old female Apc^Min/+ mice (n=10 mice per group) were provided daily with BAMLET (20 mg/day in 5 ml PBS) in the drinking water for eight weeks and sacrificed at 18 weeks of age. A similar treatment was used in the survival study groups where mice were observed until 37 weeks of age.
as §1

[4] = system: Wnt/β-catenin signaling pathway; assay: Gene expression analysis of lungs, livers and kidneys of Apc^Min/+ mice; type: in vivo; conditions: BAMLET treated compared to sham treated Apc^Min/+ mice
[5] = system: VEGF, Ki67, Cyclin D1 and β-catenin; assay: Immunohistochemistry of intestinal sections for tumor markers; type: in vivo, mice; conditions: vs sham
Excerpt: as §1

[6] = system: intestine of tumor bearing APC^Min/+ mice; assay: Real-time in vivo fluorescence imaging and immunohistochemistry of BAMLET in tumor-bearing mice
Excerpt: as §1
BAMLET was labeled using VivoTag 680XL Protein Labeling Kit (Perkin Elmer). Apc^Min/+ mice were orally gavaged with 10 mg of VivoTag 680-labelled BAMLET in 200 μl of PBS. The intestinal tissue samples were collected after 24 hours or 48 hours and imaged using an IVIS Spectrum imaging system (Perkin Elmer). BAMLET signal was acquired at fluorescent settings with 680 nm excitation.

## BAMLET
[1]; 20 mg gavage twice daily for ten days, two and five weeks post oral gavage, vs sham
  total polyp number: lower
[1]; Apc^Min/+ mice, H&E sections, BAMLET vs sham (PBS)
  number of small tumors, fully formed polyps and confluent tumors along the intestinal wall: reduced
[1]; BAMLET treated Apc^Min/+ mice vs sham group, FIG. 1f
  tumor areas: smaller
[1]; after short-term BAMLET treatment, H&E sections
  villus structure: normal villus structure was detected in the majority of sections
HT29 cells
  colony-forming cells after ten days: lasting effect
DLD1 cells
  colony-forming cells after ten days: lasting effect
PD-1
  PD-1 staining: significantly lower
[2]; BAMLET treated Apc^Min/+ mice in contrast to sham, including cancer related biofunctions
  intestinal gene expression compared to healthy C57BL/6 mice: significantly less affected
[2]; BAMLET treated vs sham, cut-off fold change ≥2.0
  number of genes regulated at all time points (shared genes): 2339
[2]; BAMLET treated vs sham, gavage or drinking water, shared genes
  cancer-related biofunctions: inhibited
[2]; genes regulated at all time points (2w pt, 5w pt, 8w dw), vs sham
  Wnt/β-catenin signaling (network analysis of shared genes): inhibited
[2]; long-term follow up, BAMLET in drinking water
  Wnt/β-catenin signaling pathway, intestinal gene expression: inhibited
[2]; long-term, BAMLET treated Apc^Min/+ mice compared to healthy C57BL/6 mice
  PD-1 pathway activation (gene expression): reduced PD-1 pathway activation
[2]; long-term, direct comparison BAMLET treated vs sham
  PD-1 pathway (gene expression): most strongly down-regulated
[2]; tumor microenvironment pathway, BAMLET vs sham
  CD44 and its ligand SPP1 (osteopontin) expression: most strongly inhibited genes in the tumor microenvironment pathway
[2]; whole intestinal tissue
  principal component analysis of mRNA profiles: formed a cluster near the healthy mice and distant from the sham group
[3]; TTF-1 / β-catenin stained lung sections, vs sham
  number of lung areas with proliferating cells: markedly reduced
[3]; immunohistochemistry, in contrast to the intestine
  BAMLET staining in lungs, livers or kidneys: not detected
[3]; long-term BAMLET in drinking water, vs sham
  β-catenin staining in lungs, livers and kidneys: general reduction
[3]; long-term follow up, vs sham
  macroscopic changes in intestine, peritoneal cavity and major organs: much less apparent
[3]; lung sections, vs sham
  level of TTF-1 staining in areas with proliferating cells: markedly reduced
[4]
  Wnt/β-catenin signaling pathway in lungs, livers and kidneys (gene expression): down-regulated
[5]; intestinal sections, five weeks post gavage and eight weeks drinking water
  expression of tumor markers VEGF, Ki67, Cyclin D1 and β-catenin: less strongly expressed
[5]; long-term BAMLET in drinking water
  β-catenin staining of intestinal sections: markedly reduced
[6]; 18-week-old APC^Min/+ mice, oral gavage, after 24 and 48 hours
  retention of VivoTag 680-labeled BAMLET in the intestine: Significant retention
[6]; after the first oral dose
  time retained in tumor tissue: at least 48 hours
[6]; immunohistochemistry with BAMLET specific antibodies
  BAMLET staining in intestinal tissue sections: detected
